≈ marks a conversion by molar mass, not a printed value.
Assays:
Type in all cases: functional
Staphylococcus aureus [1] = assay: Ratio of MIC for quinolone-resistant Staphylococcus aureus MS5935 to MIC for quinolone-sensitive Staphylococcus aureus
Enterococcus faecalis = assay: Antibacterial activity against Enterococcus faecalis ATCC 29212; settings: Enterococcus faecalis, ATCC 29212; read-out: MIC
Enterococcus faecium = assay: Antibacterial activity against VanA-type vancomycin-resistant Enterococcus faecium A2373; settings: Enterococcus faecium, A2373; read-out: MIC
Escherichia coli = assay: Antibacterial activity against Escherichia coli ATCC 25922; settings: Escherichia coli, ATCC 25922; read-out: MIC
Pseudomonas aeruginosa = assay: Antibacterial activity against Pseudomonas aeruginosa PAO1; settings: Pseudomonas aeruginosa, PAO1; read-out: MIC
Streptococcus pneumoniae = assay: Antibacterial activity against Streptococcus pneumoniae IID554; settings: Streptococcus pneumoniae, IID554; read-out: MIC
Staphylococcus aureus [2] = assay: Antibacterial activity against Staphylococcus aureus Smith
Acinetobacter baumannii = assay: Antibacterial activity against Acinetobacter baumannii IID876; settings: Acinetobacter baumannii, IID876; read-out: MIC
Moraxella catarrhalis = assay: Antibacterial activity against Moraxella catarrhalis ATCC 25238; settings: Moraxella catarrhalis, ATCC 25238; read-out: MIC
Haemophilus influenzae = assay: Antibacterial activity against Haemophilus influenzae ATCC 49247; settings: Haemophilus influenzae, ATCC 49247; read-out: MIC
[3] = Staphylococcus aureus, Smith, read-out: MIC

| Structure (SMILES) | Ratio (Staphylococcus aureus [1]) | MIC (Enterococcus faecalis) [µg/mL] | MIC (Enterococcus faecium) [µg/mL] | MIC (Escherichia coli) [µg/mL] | MIC (Pseudomonas aeruginosa) [µg/mL] | MIC (Streptococcus pneumoniae) [µg/mL] | MIC (Staphylococcus aureus [2]; [3]) [µg/mL] | MIC (Acinetobacter baumannii) [µg/mL] | MIC (Moraxella catarrhalis) [µg/mL] | MIC (Haemophilus influenzae) [µg/mL] | MIC (Staphylococcus aureus [2]) [µg/mL] |
| --- | --- | --- | --- | --- | --- | --- | --- | --- | --- | --- | --- |
| O=c1ccc2ncc(F)c3c2n1C[C@@]3(O)CC12CCC(NC/C=C/c3cc(F)ccc3F)(CC1)CO2 | <4 | 4 (≈ 8.04 µM) | 8 (≈ 16.1 µM) | 4 (≈ 8.04 µM) | 8 (≈ 16.1 µM) | 0.25 (≈ 0.502 µM) | 0.063 (≈ 0.127 µM) | 0.25 (≈ 0.502 µM) |  |  |  |
| Cc1cc2c(nc1CNC13CCC(C[C@]4(O)Cn5c(=O)ccc6ncc(F)c4c65)(CC1)OC3)NC(=O)CO2 |  | 8 (≈ 15.3 µM) | 32 (≈ 61.4 µM) | 8 (≈ 15.3 µM) | 32 (≈ 61.4 µM) | 4 (≈ 7.67 µM) | 1.5 (≈ 2.88 µM) | 4 (≈ 7.67 µM) | 0.5 (≈ 0.959 µM) | 4 (≈ 7.67 µM) |  |
| O=c1ccc2ncc(F)c3c2n1C[C@@]3(O)CC12CCC(NCc3ccc4c(c3Cl)OCCO4)(CC1)CO2 |  | 8 (≈ 15.2 µM) | 32 (≈ 60.6 µM) | 32 (≈ 60.6 µM) | 32 (≈ 60.6 µM) | 1 (≈ 1.89 µM) | 1 (≈ 1.89 µM) | 32 (≈ 60.6 µM) | 32 (≈ 60.6 µM) | 32 (≈ 60.6 µM) |  |
| O=c1ccc2ncc(F)c3c2n1C[C@@]3(O)CC12CCC(NCc3cc4c(nn3)OCCO4)(CC1)CO2 |  | 8 (≈ 16.1 µM) | 32 (≈ 64.6 µM) | 32 (≈ 64.6 µM) | 32 (≈ 64.6 µM) | 2 (≈ 4.04 µM) | 4 (≈ 8.07 µM) | 32 (≈ 64.6 µM) | 32 (≈ 64.6 µM) | 32 (≈ 64.6 µM) |  |
| O=c1ccc2ncc(F)c3c2n1C[C@@]3(O)CC12CCC(NCc3cc4c(cn3)OCS4)(CC1)CO2 |  | 2 (≈ 4.03 µM) | 8 (≈ 16.1 µM) | 8 (≈ 16.1 µM) | 32 (≈ 64.4 µM) | 0.25 (≈ 0.503 µM) | 0.25 (≈ 0.503 µM) | 0.5 (≈ 1.01 µM) | 0.5 (≈ 1.01 µM) | 4 (≈ 8.06 µM) |  |
| O=C1COc2ccc(C(=O)NC34CCC(C[C@]5(O)Cn6c(=O)ccc7ncc(F)c5c76)(CC3)OC4)nc2N1 | <4 | 8 (≈ 15.3 µM) | 16 (≈ 30.7 µM) | 32 (≈ 61.4 µM) | 32 (≈ 61.4 µM) | 4 (≈ 7.67 µM) | 1 (≈ 1.92 µM) | 16 (≈ 30.7 µM) |  |  | 0.25 (≈ 0.479 µM) |
| O=c1ccc2ncc(F)c3c2n1C[C@@]3(O)CC12CCC(NCc3cc(-c4cccs4)on3)(CC1)CO2 | <4 | 2 (≈ 3.93 µM) | 16 (≈ 31.5 µM) | 16 (≈ 31.5 µM) | 16 (≈ 31.5 µM) | 0.5 (≈ 0.983 µM) | 0.25 (≈ 0.492 µM) | 16 (≈ 31.5 µM) |  |  |  |
| O=c1ccc2ncc(F)c3c2n1C[C@@]3(O)CC12CCC(NC/C(F)=C/c3cc(F)ccc3F)(CC1)CO2 | <4 | 16 (≈ 31 µM) | 16 (≈ 31 µM) | 16 (≈ 31 µM) | 16 (≈ 31 µM) | 8 (≈ 15.5 µM) | 4 (≈ 7.76 µM) | 16 (≈ 31 µM) |  |  |  |
